Assay results taken from PubChem BioAssay AID602334 (Sanford-Burnham Center for Chemical Genomics, 2012).
Values joined by “and” are separate entries in the source; they are usually repeats but may differ in a detail not shown here. Equal values may be shown once. Active and inactive are the calls of the source. The rule behind the calls is not given here.

Biological target: Neurotensin receptor type 2 (Homo sapiens) (UniProt O95665)
Assay: activation of neurotensin receptor 2 – imaging, image-based, set 2, selectivity assay for NTR1 agonist project, SAR follow-up (AID 602334)
Conditions: NTR2-expressing cells, image-based receptor agonism assay

Chain of Neurotensin receptor type 2 (Homo sapiens) (O95665 whole entry, looked up): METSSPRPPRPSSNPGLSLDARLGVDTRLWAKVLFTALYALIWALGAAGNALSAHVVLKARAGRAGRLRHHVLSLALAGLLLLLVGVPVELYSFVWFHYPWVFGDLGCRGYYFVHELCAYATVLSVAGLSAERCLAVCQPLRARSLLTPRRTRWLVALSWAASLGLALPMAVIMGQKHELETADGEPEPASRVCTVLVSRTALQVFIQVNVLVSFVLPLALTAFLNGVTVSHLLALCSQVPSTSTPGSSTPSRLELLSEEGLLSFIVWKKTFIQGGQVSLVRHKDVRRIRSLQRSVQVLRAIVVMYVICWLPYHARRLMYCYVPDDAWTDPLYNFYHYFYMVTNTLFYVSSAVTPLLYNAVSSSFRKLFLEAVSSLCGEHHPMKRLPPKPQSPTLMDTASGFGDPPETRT

EC50	Structure (SMILES)
inactive	COc1cc2c3nnc(-c4ccc(C)c(C)c4)c-3cn(Cc3ccc(F)cc3)c2cc1OC
> 80 µM (inactive)	COc1ccc2c3nnc(-c4ccc(C)cc4)c-3cn(Cc3ccc(C)cc3)c2c1
inactive	Fc1ccc(Cn2cc3c(-c4ccc(Cl)cc4)nnc-3c3cc4c(cc32)OCO4)cc1
inactive	COc1ccc2c(c1)c1nnc(-c3ccc(F)cc3)c-1cn2Cc1ccc(F)cc1
inactive	Fc1ccc(Cn2cc3c(-c4ccc(F)cc4)nnc-3c3cc4c(cc32)OCO4)cc1
> 80 µM (inactive)	COc1cc2c3nnc(-c4ccccc4)c-3cn(Cc3ccc(F)cc3)c2cc1OC
17 µM	COc1ccc2c(c1)c1nnc(-c3ccc(F)cc3)c-1cn2Cc1ccccc1
15 µM and 15.7 µM	COc1cc2c3nnc(-c4ccc(F)cc4)c-3cn(Cc3ccc(C)cc3)c2cc1OC
1.78 µM	Cc1ccc(-c2nnc3c4cc5c(cc4n(Cc4ccccc4)cc2-3)OCO5)cc1C
> 80 µM (inactive)	COc1cc2c3nnc(-c4ccc(F)cc4)c-3cn(Cc3ccncc3)c2cc1OC
3.61 µM	COc1cc2c3nnc(-c4ccc(F)cc4)c-3cn(Cc3ccccc3F)c2cc1OC
> 80 µM (inactive)	Cc1ccc(Cn2cc3c(-c4ccc(F)cc4)nnc-3c3cc4c(cc32)OCO4)cc1
12.7 µM	COc1cc2c3nnc(-c4ccc(C)cc4)c-3cn(Cc3ccc(C)cc3)c2cc1OC
9.39 µM and 7.28 µM	COc1cc2c3nnc(-c4ccc(F)cc4)c-3cn(Cc3ccccc3)c2cc1OC
14.7 µM	COc1ccc(Cn2cc3c(-c4ccc(F)cc4)nnc-3c3cc(OC)c(OC)cc32)cc1
> 80 µM (inactive)	COc1cc2c3nnc(-c4ccc(Cl)cc4)c-3cn(Cc3ccc(C)cc3)c2cc1OC

EC50	Structure (SMILES)
11 µM	COc1cc2c3nnc(-c4ccc(F)cc4)c-3cn(Cc3ccc(C)cc3C)c2cc1OC
15.8 µM	COc1cc2c3nnc(-c4ccc(F)cc4)c-3cn(Cc3ccc(Cl)cc3)c2cc1OC
9.08 µM	COc1cc2c3nnc(-c4ccc(C)cc4)c-3cn(Cc3ccc(F)cc3)c2cc1OC
10.6 µM	COc1ccc(-c2nnc3c4cc(OC)c(OC)cc4n(Cc4ccc(C)cc4)cc2-3)cc1
inactive	Cc1ccc(Cn2cc3c(-c4ccc(C)c(C)c4)nnc-3c3cc4c(cc32)OCO4)cc1
4.37 µM and 3.73 µM	COc1cc2c3nnc(-c4ccc(F)cc4)c-3cn(Cc3ccccc3N(C)C)c2cc1OC
inactive	COc1cc2c3nnc(-c4ccc(F)cc4)c-3cn(Cc3ccc(F)cc3)c2cc1OC
> 80 µM (inactive)	CCOc1ccc(-c2nnc3c4cc(OC)c(OC)cc4n(Cc4ccc(F)cc4)cc2-3)cc1
8.36 µM	COc1cc2c3nnc(-c4ccc(Cl)cc4)c-3cn(Cc3ccc(F)cc3)c2cc1OC
> 80 µM (inactive)	COc1ccc2c3nnc(-c4ccc(C)cc4)c-3cn(Cc3ccc(F)cc3)c2c1
inactive	CCc1ccc(-c2nnc3c4cc(OC)c(OC)cc4n(Cc4ccc(F)cc4)cc2-3)cc1
> 80 µM (inactive)	Fc1ccc(-c2nnc3c4cc5c(cc4n(Cc4ccccc4)cc2-3)OCO5)cc1
6.91 µM	COc1cc2c3nnc(-c4ccc(F)cc4)c-3cn(Cc3ccccc3C)c2cc1OC
inactive	Cc1ccc(-c2nnc3c4cc5c(cc4n(Cc4ccc(F)cc4)cc2-3)OCO5)cc1
10.2 µM and 9.29 µM	COc1cc2c3nnc(-c4ccc(F)cc4)c-3cn(Cc3cccc(C)c3)c2cc1OC

Further lines, the molecule ahead of its results:

Structure (SMILES)	EC50
COc1cc2nc(C3CC3)nc(N3CCN(Cc4ccc(C)cc4)CC3)c2cc1OC	> 80 µM (inactive)
COc1cccc(OC)c1-c1nc(C(=O)N[C@@H](CC(C)C)C(=O)O)cn1-c1cccc2ccccc12	> 80 µM (inactive)
COc1cc2nc(C3CC3)nc(N3CCN(C(=O)c4ccccc4)CC3)c2cc1OC	> 80 µM (inactive)
CC(C)C[C@H](NC(=O)c1cn(-c2ccnc3cc(Cl)ccc23)c(-c2c(Cl)cccc2Cl)n1)C(=O)O	> 80 µM (inactive)
CCOc1ccccc1N1CCN(c2nc(C3CC3)nc3cc(OC)c(OC)cc23)CC1	> 80 µM (inactive)
CCCc1nc(N2CCN(c3ccccc3OC)CC2)c2cc(OC)c(OC)cc2n1	> 80 µM (inactive)
COc1cccc(OC)c1-c1cc(C(=O)N[C@@H](CC(C)C)C(=O)OC(C)(C)C)nn1-c1ccnc2cc(Cl)ccc12	> 80 µM (inactive)
C=Cc1nc(N2CCN(c3ccccc3OC)CC2)c2cc(OC)c(OC)cc2n1	> 80 µM (inactive)
COc1cccc(OC)c1-c1cc(C(=O)N[C@@H](CC(C)C)C(=O)O)nn1-c1ccnc2cc(Cl)ccc12	> 80 µM (inactive)
COc1cc2nc(CC3CC3)nc(N3CCN(c4ccccc4OC)CC3)c2cc1OC	> 80 µM (inactive)
Cc1cccc(C)c1-c1nc(C(=O)N[C@@H](CC(C)C)C(=O)O)cn1-c1ccnc2cc(Cl)ccc12	> 80 µM (inactive)
CCOc1ccc(-c2nnc3c4cc(OC)c(OC)cc4n(Cc4ccccc4)cc2-3)cc1	> 80 µM (inactive)
COc1cc2c3nnc(-c4ccccc4)c-3cn(Cc3ccccc3)c2cc1OC	inactive
COc1ccc2c3nnc(-c4ccc(C)cc4)c-3cn(Cc3ccccc3)c2c1	inactive
COc1cc2c3nnc(-c4ccc(Cl)cc4)c-3cn(Cc3ccccc3)c2cc1OC	8.47 µM
COc1cccc(OC)c1-c1nc(C(=O)N[C@H](CC(C)C)C(=O)O)cn1-c1ccnc2cc(Cl)ccc12	> 80 µM (inactive)
COc1cc2nc(C3CCC3)nc(N3CCN(c4ccccc4C)CC3)c2cc1OC	> 80 µM (inactive)
COc1cccc(OC)c1-c1nc(C(=O)N[C@@H](CC(C)C)C(=O)O)cn1-c1ccnc2ccccc12	> 80 µM (inactive)
COc1cc2c3nnc(-c4ccc(C)c(C)c4)c-3cn(Cc3ccccc3)c2cc1OC	> 80 µM (inactive)
COc1ccc(-c2nnc3c4cc(OC)c(OC)cc4n(Cc4ccccc4)cc2-3)cc1	inactive
COc1cc2nc(C3CCC3)nc(N3CCN(c4ccccc4Cl)CC3)c2cc1OC	> 80 µM (inactive)
COc1cc2nc(C3CCC3)nc(N3CCN(c4ccccc4F)CC3)c2cc1OC	> 80 µM (inactive)
COc1ccc2nc(C3CCC3)nc(N3CCN(c4ccccc4OC)CC3)c2c1	> 80 µM (inactive)
COc1cc2nc(Cc3ccccc3)nc(N3CCN(c4ccccc4OC)CC3)c2cc1OC	> 80 µM (inactive)

Structure (SMILES)	EC50
COc1cc2nc(C3CC3)nc(N3CCN(C(=O)c4ccccc4OC)CC3)c2cc1OC	> 80 µM (inactive)
COc1cc2nc(C3CCCC3)nc(N3CCN(c4ccccc4OC)CC3)c2cc1OC	> 80 µM (inactive)
COc1cc2nc(C3CCC3)nc(N3CCN(c4ccccn4)CC3)c2cc1OC	> 80 µM (inactive)
COc1cc2nc(CCN(C)C)nc(N3CCN(c4ccccc4OC)CC3)c2cc1OC	> 80 µM (inactive)
COc1cc2nc(CCN3CCN(c4ccccc4OC)CC3)nc(N3CCN(c4ccccc4OC)CC3)c2cc1OC	> 80 µM (inactive)
COc1cc2nc(CC(C)C)nc(N3CCN(c4ccccc4OC)CC3)c2cc1OC	> 80 µM (inactive)
COc1cc2nc(C3CCC3)nc(N3CCN(c4ccccc4[N+](=O)[O-])CC3)c2cc1OC	> 80 µM (inactive)
CCc1nc(N2CCN(c3ccccc3OC)CC2)c2cc(OC)c(OC)cc2n1	> 80 µM (inactive)
COc1cc2nc(C3CCC3)nc(N3CCN(c4c(C)cccc4C)CC3)c2cc1OC	> 80 µM (inactive)
COc1cc2nc(C3CCC3)nc(N3CCN(c4ccccc4)CC3)c2cc1OC	> 80 µM (inactive)
COc1ccccc1-c1cc(C(=O)N[C@@H](CC(C)C)C(=O)O)nn1-c1ccnc2cc(Cl)ccc12	> 80 µM (inactive)
COc1cc2nc(C(C)C)nc(N3CCN(c4ccccc4OC)CC3)c2cc1OC	> 80 µM (inactive)
COc1ccccc1CN1CCN(c2nc(C3CC3)nc3cc(OC)c(OC)cc23)CC1	> 80 µM (inactive)
COc1ccc2nc(C3CC3)nc(N3CCN(c4ccccc4OC)CC3)c2c1	> 80 µM (inactive)
COc1ccc(N2CCN(c3nc(C4CCC4)nc4cc(OC)c(OC)cc34)CC2)c(OC)c1	> 80 µM (inactive)
COc1cc2nc(C3CC3)nc(N3CCN(S(=O)(=O)c4ccccc4)CC3)c2cc1OC	> 80 µM (inactive)
COc1cc2nc(C3CC3)nc(N3CCN(c4ccccc4OC)CC3)c2cc1OC	> 80 µM (inactive)
COc1cc2nc(C3CC3)nc(N3CCN(c4ccccc4Cl)CC3)c2cc1OC	> 80 µM (inactive)
CCOc1ccc(-c2nnc3c4cc(OC)c(OC)cc4n(Cc4ccc(C)cc4)cc2-3)cc1	> 80 µM (inactive)
COc1cc2nc(C3CCC3)nc(N3CCN(c4ccccc4OC)CC3)c2cc1OC	> 80 µM (inactive)
COc1cc2nc(C3CC3)nc(N3CCNCC3)c2cc1OC	> 80 µM (inactive)
COc1cccc(OC)c1-c1nc(C(=O)N[C@@H](CC(C)C)C(=O)O)cn1-c1ccnc2cc(Cl)ccc12	> 80 µM (inactive)
COc1cc2nc(C3CC3)nc(N3CCN(C(=O)OC(C)(C)C)CC3)c2cc1OC	> 80 µM (inactive)
